Assay results as given in the supplement of paper PMC10307832.

Key:
Assay in all cases: relative viability (nuclei count vs DMSO), 5 days (fraction); higher = more cells survive
BMX-IN-1 + Luminespib = compound: C=CC(=O)Nc1cc(-n2c(=O)ccc3cnc4ccc(-c5ccc(NS(C)(=O)=O)cc5)cc4c32)ccc1C [BMX-IN-1] + CCNC(=O)c1noc(-c2cc(C(C)C)c(O)cc2O)c1-c1ccc(CN2CCOCC2)cc1 [Luminespib] (partner 0.01 µM)
How it was run: (§1)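 Nuclei were stained with Hoechst during a one-step fixation (final 0.05% Triton X-100, 1% formaldehyde, 1 ug/ml Hoechst) carried out 5 days after dosing, then counted on 4× images. The cells, lung cancer lines in 1536-well plates, had been dosed by pin tool the day after seeding with one drug alone or a fixed anchor-drug dose plus five library-drug doses (not always all listed) in √10 steps. Relative viability is the nuclei count in treated wells divided by that in vehicle wells, and each value is the median of duplicate plates.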

PAC-1 + Luminespib = compound: C=CCc1cccc(/C=N/NC(=O)CN2CCN(Cc3ccccc3)CC2)c1O [PAC-1] + CCNC(=O)c1noc(-c2cc(C(C)C)c(O)cc2O)c1-c1ccc(CN2CCOCC2)cc1 [Luminespib] (partner 0.01 µM)
How it was run: as §1

Ibrutinib + Pemetrexed = compound: C=CC(=O)N1CCC[C@@H](n2nc(-c3ccc(Oc4ccccc4)cc3)c3c(N)ncnc32)C1 [Ibrutinib] + Nc1nc2[nH]cc(CCc3ccc(C(=O)N[C@@H](CCC(=O)O)C(=O)O)cc3)c2c(=O)[nH]1 [Pemetrexed] (partner 0.2 µM)
How it was run: as §1

BMX-IN-1 + Bortezomib = compound: C=CC(=O)Nc1cc(-n2c(=O)ccc3cnc4ccc(-c5ccc(NS(C)(=O)=O)cc5)cc4c32)ccc1C [BMX-IN-1] + CC(C)C[C@H](NC(=O)[C@H](Cc1ccccc1)NC(=O)c1cnccn1)B(O)O [Bortezomib] (partner 0.002 µM)
How it was run: as §1

Cell Line	relative viability (BMX-IN-1 + Luminespib; first compound 0.02 µM)	relative viability (BMX-IN-1 + Luminespib; first compound 0.2 µM)	relative viability (BMX-IN-1 + Luminespib; first compound 0.6325 µM)	relative viability (BMX-IN-1 + Luminespib; first compound 2 µM)	relative viability (PAC-1 + Luminespib; first compound 0.02 µM)	relative viability (PAC-1 + Luminespib; first compound 0.06325 µM)	relative viability (PAC-1 + Luminespib; first compound 0.2 µM)	relative viability (PAC-1 + Luminespib; first compound 2 µM)	relative viability (Ibrutinib + Pemetrexed; first compound 0.005 µM)	relative viability (Ibrutinib + Pemetrexed; first compound 0.01581 µM)	relative viability (Ibrutinib + Pemetrexed; first compound 0.05 µM)	relative viability (Ibrutinib + Pemetrexed; first compound 0.1581 µM)	relative viability (Ibrutinib + Pemetrexed; first compound 0.5 µM)	relative viability (BMX-IN-1 + Bortezomib; first compound 0.02 µM)	relative viability (BMX-IN-1 + Bortezomib; first compound 0.2 µM)	relative viability (BMX-IN-1 + Bortezomib; first compound 0.6325 µM)	relative viability (BMX-IN-1 + Bortezomib; first compound 2 µM)
NCI-H838	0.245	0.291	0.302	0.294	0.254	0.374	0.238	0.301	0.255	0.236	0.246	0.265	0.292	0.724	0.803	0.95	0.777
NCI-H647	0.242	0.294	0.179	0.379	0.103	0.123	0.286	0.16	0.197	0.183	0.205	0.194	0.421	1.15	1.42	1.24	1.01
